# ChEMBL document CHEMBL4049450, “Discovery of 5-Azaindazole (GNE-955) as a Potent Pan-Pim Inhibitor with Optimized Bioavailability” (J Med Chem, 2017)
# Columns and labels:
# [1] = Kinetic solubility of compound at pH 7.4; settings: buffer
# [2] = Clearance in rat liver microsomes; format: ADME, microsome
# [3] = Clearance in rat hepatocytes; format: ADME, cell-based, Hepatocyte
# [4] = Apparent permeability across apical to basolateral side in MDCK cells; format: ADME, cell-based, Canis lupus familiaris; settings: dog
# [5] = Efflux ratio of apparent permeability in MDCK cells; settings: dog
# [6] = Metabolic stability in rat intestinal microsomes assessed as compound remaining after 60 mins in absence of NADPH/UDPGA; format: ADME, Intestine, Microsome; settings: for remaining at 1 h: intestinal microsomes, read-out: Stability; for Stability: microsomes, 1 h
# [7] = Metabolic stability in rat intestinal microsomes assessed as compound remaining after 60 mins in presence of NADPH; format: ADME, Intestine, Microsome; settings: read-out: Stability
# [8] = Metabolic stability in rat intestinal microsomes assessed as compound remaining after 60 mins in presence of UDPGA; format: ADME, Intestine, Microsome; settings: read-out: Stability
# [9] = Metabolic stability in rat intestinal microsomes assessed as compound remaining after 60 mins in presence of NADPH/UDPGA; format: ADME, Intestine, Microsome; settings: for remaining at 1 h: intestinal microsomes, read-out: Stability; for Stability: microsomes, 1 h
# [10] = Clearance in rat at 1 mg/kg, iv; format: ADME, organism-based; settings: in vivo
# [11] = Oral bioavailability in rat at 5 mg/kg; format: ADME, organism-based; settings: in vivo
# [12] = target: T1, Serine/threonine-protein kinase pim-1 (Homo sapiens, UniProt P11309); assay: Inhibition of PIM1 (unknown origin) using 5FAM-ARKRRRHPSGPPTA as substrate after 90 mins in presence of ATP by caliper microfluidic mobility shift assay
# Target sequence in this assay (P11309 whole entry): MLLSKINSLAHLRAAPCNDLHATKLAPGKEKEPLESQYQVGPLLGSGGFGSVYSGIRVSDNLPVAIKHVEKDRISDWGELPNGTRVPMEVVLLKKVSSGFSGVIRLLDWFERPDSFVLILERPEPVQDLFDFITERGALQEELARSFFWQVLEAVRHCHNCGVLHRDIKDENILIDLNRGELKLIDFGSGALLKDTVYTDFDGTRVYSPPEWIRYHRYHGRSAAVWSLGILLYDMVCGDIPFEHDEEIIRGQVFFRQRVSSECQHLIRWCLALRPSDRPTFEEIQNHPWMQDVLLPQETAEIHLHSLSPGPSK
# [13] = target: Serine/threonine-protein kinase pim-2 (Homo sapiens, UniProt Q9P1W9); assay: Inhibition of PIM2 (unknown origin) using 5FAM-ARKRRRHPSGPPTA as substrate after 90 mins in presence of ATP by caliper microfluidic mobility shift assay
# [14] = target: Serine/threonine-protein kinase pim-3 (Homo sapiens, UniProt Q86V86); assay: Inhibition of PIM3 (unknown origin) using 5FAM-ARKRRRHPSGPPTA as substrate after 90 mins in presence of ATP by caliper microfluidic mobility shift assay
# MM1.S = assay: Antiproliferative activity against human MM1S cells after 72 hrs by CellTiter-Glo assay; format: functional, cell-based
# Plasma = assay: Drug level in rat plasma treated with N4-Phenylpyrimidine-2,4-diamine at 5 mg/kg, po; format: ADME, organism-based; settings: in vivo
# [15] = Metabolic stability in mouse intestinal microsomes assessed as compound remaining after 60 mins in absence of NADPH/UDPGA; format: ADME, Intestine, Microsome; settings: 1 h
# [16] = Metabolic stability in mouse intestinal microsomes assessed as compound remaining after 60 mins in presence of NADPH/UDPGA; format: ADME, Intestine, Microsome; settings: 1 h
# [17] = Metabolic stability in human intestinal microsomes assessed as compound remaining after 60 mins in absence of NADPH/UDPGA; format: ADME, Intestine, Microsome; settings: 1 h
# [18] = Metabolic stability in human intestinal microsomes assessed as compound remaining after 60 mins in presence of NADPH/UDPGA; format: ADME, Intestine, Microsome; settings: 1 h
# [19] = Metabolic stability in dog intestinal microsomes assessed as compound remaining after 60 mins in absence of NADPH/UDPGA; format: ADME, Canis lupus familiaris, Intestine, Microsome; settings: 1 h
# [20] = Metabolic stability in dog intestinal microsomes assessed as compound remaining after 60 mins in presence of NADPH/UDPGA; format: ADME, Canis lupus familiaris, Intestine, Microsome; settings: 1 h
# [21] = Metabolic stability in cynomolgus monkey intestinal microsomes assessed as compound remaining after 60 mins in absence of NADPH/UDPGA; format: ADME, Macaca fascicularis, Intestine, Microsome; settings: 1 h
# [22] = Metabolic stability in cynomolgus monkey intestinal microsomes assessed as compound remaining after 60 mins in presence of NADPH/UDPGA; format: ADME, Macaca fascicularis, Intestine, Microsome; settings: 1 h
# Homo sapiens [23] = species: Homo sapiens; assay: Inhibition of PIM in human MM1S cells assessed as reduction in S6 s235/236 phosphorylation by Western blot analysis; format: cell-based
# Homo sapiens [24] = species: Homo sapiens; assay: Inhibition of PIM in human […] cells assessed as reduction in BAD phosphorylation by Western blot analysis; format: cell-based
# Homo sapiens [25] = species: Homo sapiens; assay: Inhibition of PIM in human […] cells assessed as reduction in 4EBP1 phosphorylation by Western blot analysis; format: cell-based
# [26] = target: T1, Serine/threonine-protein kinase pim-1; assay: Inhibition of PIM1 (unknown origin) at 0.1 uM
# Target sequence in this assay (P11309 whole entry, looked up): as the sequence (P11309 whole entry) above
# [27] = target: Dual specificity protein kinase CLK1 (Homo sapiens) (UniProt P49759); assay: Inhibition of CLK1 (unknown origin) at 0.1 uM
# [28] = target: Receptor-type tyrosine-protein kinase FLT3 (Homo sapiens) (UniProt P36888); assay: Inhibition of FLT3 (unknown origin) at 0.1 uM
# hERG (KCNH2) [29] = target: T2, hERG (KCNH2) (Homo sapiens, UniProt Q12809); assay: Inhibition of human ERG expressed in HEK293 cells at 10 uM after 5 mins by patch clamp assay; format: cell-based; settings: HEK293 cells that express hERG
# hERG (KCNH2) [30] = target: T2, hERG (KCNH2); assay: Inhibition of human ERG expressed in HEK293 cells at 1 uM after 5 mins by patch clamp assay; format: cell-based; settings: HEK293 cells that express hERG
# Homo sapiens [31] = species: Homo sapiens; assay: Inhibition of PIM in human MM1S cells assessed as reduction in S6 s240/244 phosphorylation by Western blot analysis; format: cell-based
# Chain of Serine/threonine-protein kinase pim-2 (Q9P1W9 whole entry): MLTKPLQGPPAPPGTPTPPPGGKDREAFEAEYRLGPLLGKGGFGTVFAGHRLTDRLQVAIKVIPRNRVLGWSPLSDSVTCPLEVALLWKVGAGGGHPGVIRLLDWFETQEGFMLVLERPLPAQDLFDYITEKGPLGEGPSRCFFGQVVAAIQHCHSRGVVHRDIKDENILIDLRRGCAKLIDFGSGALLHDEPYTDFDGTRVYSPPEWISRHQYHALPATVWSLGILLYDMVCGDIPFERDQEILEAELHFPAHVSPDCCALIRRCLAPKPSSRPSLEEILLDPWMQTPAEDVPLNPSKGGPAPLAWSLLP
# T2 sequence (Q12809 whole entry): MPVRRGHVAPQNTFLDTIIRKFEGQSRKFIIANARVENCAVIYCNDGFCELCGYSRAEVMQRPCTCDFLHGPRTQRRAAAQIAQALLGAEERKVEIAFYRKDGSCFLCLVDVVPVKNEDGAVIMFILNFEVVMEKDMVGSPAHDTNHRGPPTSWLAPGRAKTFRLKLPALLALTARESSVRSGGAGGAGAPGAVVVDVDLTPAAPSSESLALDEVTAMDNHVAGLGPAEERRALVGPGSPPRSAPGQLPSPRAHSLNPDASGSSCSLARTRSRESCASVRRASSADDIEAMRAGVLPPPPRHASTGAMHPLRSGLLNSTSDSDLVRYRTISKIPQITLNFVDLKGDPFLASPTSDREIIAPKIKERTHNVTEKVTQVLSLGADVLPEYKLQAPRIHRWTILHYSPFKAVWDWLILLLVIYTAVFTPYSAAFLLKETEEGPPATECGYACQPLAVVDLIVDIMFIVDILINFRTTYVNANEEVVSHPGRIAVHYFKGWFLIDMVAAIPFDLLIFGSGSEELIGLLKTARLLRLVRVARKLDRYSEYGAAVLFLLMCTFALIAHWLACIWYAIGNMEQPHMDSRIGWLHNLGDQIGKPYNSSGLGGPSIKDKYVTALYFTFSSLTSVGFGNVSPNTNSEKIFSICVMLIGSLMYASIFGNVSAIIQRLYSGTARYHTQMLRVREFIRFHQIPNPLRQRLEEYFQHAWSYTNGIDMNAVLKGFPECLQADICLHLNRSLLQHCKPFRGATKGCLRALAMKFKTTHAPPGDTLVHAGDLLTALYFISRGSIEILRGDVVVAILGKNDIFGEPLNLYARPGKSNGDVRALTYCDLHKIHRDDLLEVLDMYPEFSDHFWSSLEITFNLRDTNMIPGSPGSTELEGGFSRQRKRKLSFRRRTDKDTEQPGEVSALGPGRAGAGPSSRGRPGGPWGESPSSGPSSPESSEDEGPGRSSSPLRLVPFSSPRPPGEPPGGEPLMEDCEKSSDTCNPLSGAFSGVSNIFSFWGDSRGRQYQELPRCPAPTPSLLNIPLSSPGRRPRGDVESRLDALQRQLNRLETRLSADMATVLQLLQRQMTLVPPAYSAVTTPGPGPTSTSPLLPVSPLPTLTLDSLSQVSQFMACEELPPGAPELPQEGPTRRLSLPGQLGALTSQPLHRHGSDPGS
# Chain of Receptor-type tyrosine-protein kinase FLT3 (Homo sapiens) (P36888 whole entry): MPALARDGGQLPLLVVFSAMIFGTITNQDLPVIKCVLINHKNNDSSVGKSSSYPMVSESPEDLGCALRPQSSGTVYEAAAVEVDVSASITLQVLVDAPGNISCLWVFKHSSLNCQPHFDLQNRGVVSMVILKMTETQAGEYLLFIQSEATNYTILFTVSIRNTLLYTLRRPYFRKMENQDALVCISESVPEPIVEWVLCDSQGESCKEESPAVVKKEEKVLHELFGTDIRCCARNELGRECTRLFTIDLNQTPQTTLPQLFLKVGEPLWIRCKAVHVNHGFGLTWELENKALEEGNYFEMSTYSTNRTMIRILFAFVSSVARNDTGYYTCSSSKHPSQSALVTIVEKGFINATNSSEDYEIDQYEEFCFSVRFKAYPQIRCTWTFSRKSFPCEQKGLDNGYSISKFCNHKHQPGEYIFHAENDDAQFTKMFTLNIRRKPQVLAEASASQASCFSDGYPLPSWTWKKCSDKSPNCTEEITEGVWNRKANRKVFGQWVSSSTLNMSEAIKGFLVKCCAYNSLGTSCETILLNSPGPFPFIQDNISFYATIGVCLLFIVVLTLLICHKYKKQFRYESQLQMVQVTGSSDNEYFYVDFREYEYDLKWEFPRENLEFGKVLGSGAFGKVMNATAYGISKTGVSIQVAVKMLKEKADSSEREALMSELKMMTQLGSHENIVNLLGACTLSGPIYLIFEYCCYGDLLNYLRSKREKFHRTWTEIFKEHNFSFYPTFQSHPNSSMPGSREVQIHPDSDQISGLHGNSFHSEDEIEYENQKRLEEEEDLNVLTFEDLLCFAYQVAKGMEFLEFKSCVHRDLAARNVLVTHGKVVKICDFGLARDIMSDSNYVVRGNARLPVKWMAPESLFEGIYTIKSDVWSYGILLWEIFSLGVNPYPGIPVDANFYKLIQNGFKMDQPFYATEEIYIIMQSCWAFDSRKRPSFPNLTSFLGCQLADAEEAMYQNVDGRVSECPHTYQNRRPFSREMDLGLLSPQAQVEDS
# Chain of Dual specificity protein kinase CLK1 (Homo sapiens) (P49759 whole entry, looked up): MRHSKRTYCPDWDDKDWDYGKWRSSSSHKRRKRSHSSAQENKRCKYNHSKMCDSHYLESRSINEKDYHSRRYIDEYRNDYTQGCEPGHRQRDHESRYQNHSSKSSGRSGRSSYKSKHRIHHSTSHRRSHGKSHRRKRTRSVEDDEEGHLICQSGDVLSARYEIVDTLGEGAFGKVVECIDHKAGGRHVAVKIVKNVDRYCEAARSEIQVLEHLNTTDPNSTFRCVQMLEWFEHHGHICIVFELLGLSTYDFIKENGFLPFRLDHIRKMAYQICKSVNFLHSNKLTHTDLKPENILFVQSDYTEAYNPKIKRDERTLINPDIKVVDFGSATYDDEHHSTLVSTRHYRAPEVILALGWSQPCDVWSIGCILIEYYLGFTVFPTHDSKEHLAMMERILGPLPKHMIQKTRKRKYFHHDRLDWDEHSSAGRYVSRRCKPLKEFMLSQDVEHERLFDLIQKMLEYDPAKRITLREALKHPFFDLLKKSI
Compound,remaining at 1 h [6],remaining at 1 h [7],remaining at 1 h [8],remaining at 1 h [9],Ki [12],Ki [13],Ki [14],further results
Cc1ccc(-c2n[nH]c3cnc(-c4cccnc4)cc23)nc1N1CCC[C@H](N)C1,98%,37%,62%,27%,–,–,–,solubility kinetic [1]: 81.2 µM; CLhep predicted [2]: 34 mL/min/kg; CLhep predicted [3]: 34 mL/min/kg; Papp A→B [4]: 3 ×10⁻⁶ cm/s; efflux ratio [5]: 1.8; clearance [10]: 21 mL/min/kg; bioavailability [11]: 0%
Cc1cncc(-c2cnc3cnn(-c4cccc(N5CCCNCC5)n4)c3c2)n1,87%,100%,79%,76%,0.8 nM,13 nM,0.4 nM,–
Cc1cncc(-c2cc3c(-c4cccc(N5CCCNCC5)n4)n[nH]c3cn2)n1,103%,97%,40%,59%,0.02 to 0.022 nM,0.11 to 0.17 nM,0.04 to 0.041 nM,solubility kinetic [1]: 38.5 µM; CLhep predicted [2]: 33 mL/min/kg; CLhep predicted [3]: 35 mL/min/kg; Papp A→B [4]: 3.2 ×10⁻⁶ cm/s; efflux ratio [5]: 4.9; clearance [10]: 65 mL/min/kg; bioavailability [11]: 1.3%; IC50 (MM1.S): 220 nM
CCn1cc(-c2cc3c(-c4cccc(N5CCC[C@@H](NC(C)=O)C5)n4)n[nH]c3cn2)cn1,–,–,–,–,–,–,–,Drug metabolism (Plasma): Metabolite_Detected
Cc1cncc(-c2cc3c(ccn3-c3cccc(N4CCCNCC4)n3)cn2)n1,98%,100%,104%,102%,0.5 nM,9.6 nM,0.8 nM,–
CN1CCN(c2cc3c(-c4cccc(N5CCNCC5)n4)n[nH]c3cn2)CC1=O,–,120%,56%,42%,–,–,–,solubility kinetic [1]: 93.4 µM; CLhep predicted [2]: 31 mL/min/kg; CLhep predicted [3]: 18 mL/min/kg; Stability [6]: 130%; clearance [10]: 19 mL/min/kg; bioavailability [11]: 1.4%
c1cncc(-c2cc3c(-c4cccc(N5CCCNCC5)n4)n[nH]c3cn2)c1,–,–,–,–,–,–,–,Stability [6]: Stable; Stability [9]: Unstable; Stability [15]: Unstable; Stability [16]: Unstable; Stability [17]: Stable; Stability [18]: Stable; Stability [19]: Stable; Stability [20]: Stable; Stability [21]: Stable; Stability [22]: Stable
COc1ccc(-n2ncc3cnc(-c4cncc(C)n4)cc32)nc1N1CCC[C@H](N)C1,–,–,–,101%,0.018 to 0.03 nM,0.11 nM,0.008 to 0.02 nM,"CLhep predicted [2]: 29 mL/min/kg; CLhep predicted [3]: 19 mL/min/kg; clearance [10]: 34 mL/min/kg; bioavailability [11]: 103%; IC50 (MM1.S): 500 to 510 nM; inhibition (Homo sapiens [23]): Dose-dependent effect; inhibition (Homo sapiens [24]): Dose-dependent effect; inhibition (Homo sapiens [25]): Dose-dependent effect; inhibition [26]: 100%; inhibition [27]: 97%; inhibition [28]: 82%; inhibition at 5 min, 10 µM (hERG (KCNH2) [29]): 49%; inhibition at 5 min, 1 µM (hERG (KCNH2) [30]): 37%; inhibition (Homo sapiens [31]): Dose-dependent effect"
Cn1nc(-c2cccc(N3CCC[C@H](N)C3)n2)c2cc(-c3cccnc3)ncc21,96%,59%,103%,62%,190 nM,630 nM,120 nM,–
N[C@H]1CCCN(c2cccc(-c3n[nH]c4cnc(-c5cccnc5)cc34)n2)C1,93%,34%,48%,26%,0.04 nM,0.2 nM,0.02 nM,–
Cc1cncc(-c2cc3c(-c4cccc(N5CCCNCC5)n4)nsc3cn2)n1,101%,101%,91%,98%,0.7 nM,18 nM,1 nM,–
Cc1cncc(-c2cc3c(cn2)cnn3-c2cccc(N3CCCNCC3)n2)n1,91%,99%,85%,91%,–,–,–,CLhep predicted [2]: 32 mL/min/kg; CLhep predicted [3]: 27 mL/min/kg; clearance [10]: 28 mL/min/kg; bioavailability [11]: 42%; IC50 (MM1.S): 5000 nM
Cn1cc(-c2cc3c(-c4cccc(N5CCC[C@H](N)C5)n4)nn(C)c3cn2)cn1,95%,91%,92%,102%,38 nM,170 nM,23 nM,–
CCn1cc(-c2cc3c(-c4cccc(N5CCOCC5)n4)n[nH]c3cn2)cn1,77%,89%,0.2%,0.4%,–,4 nM,0.2 nM,–
Cn1cc(-c2cc3c(-c4cccc(N5CCC[C@H](N)C5)n4)n[nH]c3cn2)cn1,87%,86%,67%,69%,–,0.2 nM,0.02 nM,–
Cc1ccc(-c2n[nH]c3cnc(-c4cccnc4)cc23)nc1N1CC[C@@H](N)C1,–,–,–,–,–,–,–,Stability [6]: Stable; Stability [9]: Unstable; Stability [15]: Unstable; Stability [16]: Unstable; Stability [17]: Stable; Stability [18]: Stable; Stability [19]: Stable; Stability [20]: Stable; Stability [21]: Stable; Stability [22]: Stable
Cc1cncc(-c2cc3c(cn2)cnn3-c2cccc([C@H]3CNCCC3(F)F)n2)n1,–,–,–,–,0.07 nM,0.23 nM,–,CLhep predicted [2]: 42 mL/min/kg; CLhep predicted [3]: 31 mL/min/kg; clearance [10]: 40 mL/min/kg; bioavailability [11]: 57%; IC50 (MM1.S): 1200 nM
Cc1cncc(-c2cn3c(-c4cccc(N5CCCNCC5)n4)ncc3cn2)n1,106%,111%,69%,66%,0.5 nM,16 nM,0.4 nM,–
Cc1cncc(-c2cc3c(cnn3-c3cccc(N4CCCNCC4)n3)nn2)n1,103%,118%,81%,80%,0.02 nM,0.48 nM,0.03 nM,–
Cc1cncc(-c2ccc3cnn(-c4cccc(N5CCCNCC5)n4)c3c2)n1,91%,84%,100%,101%,0.4 nM,7.9 nM,0.2 nM,–
c1cncc(-c2cc3c(-c4cccc(N5CCNCC5)n4)n[nH]c3cn2)c1,–,–,–,–,–,–,–,Stability [6]: Stable; Stability [9]: Unstable; Stability [15]: Unstable; Stability [16]: Unstable; Stability [17]: Stable; Stability [18]: Stable; Stability [19]: Stable; Stability [20]: Stable; Stability [21]: Stable; Stability [22]: Stable
CCn1cc(-c2cc3c(-c4cccc(N5CCN(C)CC5)n4)n[nH]c3cn2)cn1,82%,91%,0.4%,0.4%,0.3 nM,3 nM,0.1 nM,–
Cn1cc(-c2cc3c(-c4cccc(N5CCC[C@@H](N)C5)n4)n[nH]c3cn2)cn1,–,–,–,–,–,–,–,Stability [6]: Stable; Stability [9]: Unstable; Stability [15]: Unstable; Stability [16]: Unstable; Stability [17]: Stable; Stability [18]: Stable; Stability [19]: Stable; Stability [20]: Stable; Stability [21]: Stable; Stability [22]: Stable
Cc1cncc(-c2cc(F)c3cnn(-c4cccc(N5CCCNCC5)n4)c3c2)n1,108%,107%,103%,98%,450 nM,7400 nM,270 nM,–
